Reference: patent publication US12685725B2, “Pridopidine for the treatment of mitochondrial-associated diseases and disorders and endoplasmic reticulum (ER) stress” (PRILENIA NEUROTHERAPEUTICS LTD., priority 2019, dated 2026)
Read-outs that look alike come from different tables or passages of the source.

Legend:
[1] = system: WT and YAC128 striatal neurons; settings: 1 μM, 24 h
Procedure: To obtain pure cortical and striatal neurons, tissue was micro-dissected in HBSS supplemented with 0.3% fatty acid free BSA (Sigma-Aldrich, catalog no: A8806). Tissue from embryos with the same genotype were pooled and digested with 0.003% trypsin in HBSS, then mechanically digested. […] (Sigma-Aldrich, catalog no: T9128) was used to block the trypsin. […] Cultures were incubated at 37° C. with 5% CO2. After 3 days in vitro (DIV) half of the medium was replaced with fresh supplemented Neurobasal medium containing 5-fluoro-2′-deoxyuridine (5-FdU, 5 μM final concentration in the medium; Sigma-Aldrich, catalog no: F0503) to reduce dividing non-neuronal cells. At DIV 7 half of the medium was again replaced with fresh, and cells were used at DIV12.
The ultrathin sections were prepared using Leica Ultracut UCT (Leica, Vienna, Austria) and contrasted with uranyl acetate and lead citrate. […] All mitochondria of 6-7 different cells were snapped per condition and per independent experiment. Number of mitochondria-ER contacts sites (MERCS), MERCS length, ER and mitochondria profile areas, ER width and mitochondria aspect ratio (the ratio between the major and minor axes of mitochondria) were quantified. Number of MERCS per mitochondria was obtained by dividing number of MERCS per number of mitochondria profiles. Percentage of mitochondria surface covered by ER was measured by dividing the MERCS length by mitochondria perimeter and multiplying by 100. MERCS were considered when the distance between ER and mitochondria <40 nm.

[2] = system: WT and YAC128 striatal neurons
Procedure: Briefly, plasmid was diluted in TE (in mM: 1 Tris-HCl pH 7.3, 1 mM EDTA), followed by the addition of CaCl2 (in mM: 2.5 CaCl2 in 10 HEPES, pH 7.2). The DNA solution was carefully added to 2×HEBS (in mM: 12 dextrose, 50 HEPES, 10 KCl, 280 NaCl and 1.5 Na2HPO4·2H2O, pH 7.2) while bubbling air through the solution. The mixture was then incubated for 25 min at room temperature. The precipitates were added dropwise to the coverslips in Neurobasal medium and incubated for 80 minutes at 37° C. The DNA-Ca^2+-phosphate precipitates were dissolved with freshly-made dissolution medium (Neurobasal medium with 20 mM HEPES, pH 6.8) and incubated for 7 min at room temperature. The transfected neurons were then washed with Neurobasal medium and transferred back to their original dishes containing conditioned culture medium until DIV12.
MitoDsRed-transfected striatal neurons were fixed with 4% paraformaldehyde (pre-warmed at 37° C.) for 20 minutes, permeabilized in 0.2% Triton X-100 in PBS for 2 minutes and blocked for 1 hour at room temperature in 3% (w/v) BSA in PBS. […] Confocal images were obtained as stacks, at 0.46 μm intervals along the z axis, using a Plan-Apochromat/1.4NA 63× lens on an Axio Observer.Z1 confocal microscope (Zeiss Microscopy, Germany) with Zeiss LSM 710 software. FIJI (ImageJ, National Institute of Health, USA) was used for image analysis. […] To optimally resolve individual mitochondria, a threshold was applied followed by the Analyze Particles function to trace mitochondrial outlines. For S1R and IP3R3 fluorescence, a threshold was set similarly to the one described above, and Integrated Density was obtained. S1R and IP3R3 Integrated Density was calculated inside of mitochondrial ROIs selection to obtain ER co-localization with mitochondria.

HD human lymphoblasts = settings: 24 h pre-treatment
Procedure: The lymphoblasts were passaged 1:3 every five to six days. For conducting experiments, the lymphoblasts were collected and centrifuged at 145×g for 5 min. The cell pellet was resuspended in fresh growth medium. Lymphoblasts between passage number 5 and 20 were used in each experiment.
Mitochondrial membrane potential (Δψm) was assessed in cortical and striatal neurons using the positively changed fluorescent probe TMRM (tetramethylrhodamine methyl ester) (Thermo Fisher Sci., catalog no: T668) and in cortical/striatal co-cultures and lymphoblasts using an equivalent probe, TMRE (tetramethylrhodamine ethyl ester) (Abcam, catalog no. ab113852).
TMRE assay: Primary neurons and lymphoblasts in suspension were cultured in 6-well plates.

HD-NSCs = experiment: cells; settings: Homo sapiens, 24 h, read-out: reduction of the increase in H2O2 levels induced by complex III inhibition
Procedure: NSCs were plated at 30,000 cells/well in 96-well assay plates coated with Geltex® for 24 h at 37° C. Afterwards, NSCs were incubated for another 24 h with 1 μM pridopidine. […] MitoPY1 fluorescence was obtained with a Microplate Spectrofluorometer Gemini EM (Molecular Devices, USA) using wavelength parameters described above. Basal levels were measured for 10-15 minutes followed by exposure to 3 μM myxothiazol (mitochondrial complex III inhibitor. Sigma-Aldrich, catalog no: T5580) and measured for an additional 30 minutes. The results were calculated as RFU per 30,000 cells.

[3] = system: Nrf2/ARE genes (Nqo1, Hmox1, GCLc) in HD lymphoblasts; settings: 5 μM, 24 h
Procedure: The qPCR was performed using the ABI Prism 7500 Sequence Detection System (Applied Biosystems). Each sample was run in triplicate. Gene expression was normalized to Rpl13a or UBC mRNA.

YAC128 mice = settings: 30 mg/kg/day oral gavage 45 days, vs vehicle-treated HD mice, p=0.0270
Procedure: 1.5-month-old WT and hemizygous YAC128 mice (males and females in equal proportion) were divided into four groups. […] Mice were divided 4 animals per cage enriched in corn-husk nesting material and paper rolls, each cage representing one individual experiment, for a total of 9 animals per group. Pridopidine was dissolved in deionized sterile water. Animals were weighed every week and the volume of treatment adjusted accordingly. Mice were behaviorally tested in rotarod immediately before commencing treatment and on the day before finishing treatment. Tests were conducted blindly at a set time during the day. Mice were sacrificed 24 h after administration of the final pridopidine dose, and mitochondria isolated from the striatum.

[4] = YAC128 striatal neurons, p<0.0001
[5] = YAC128 striatal neurons, 1 μM, 24 h

## CCCN1CCC(c2cccc(S(C)(=O)=O)c2)CC1 [Pridopidine, 4-[3-(methylsulfonyl)phenyl]-1-propyl-piperidine]
[1]; WT neurons, p=0.0339
  percent of mitochondrial surface in contact with ER: significantly increases the percent of mitochondrial surface in contact with ER
[1]; Y128 striatal neurons, p=0.0044
  proportion of elongated mitochondria (aspect ratio): increases the proportion of elongated mitochondria in Y128 striatal neurons to WT levels
[1]; YAC128 neurons, p<0.0001
  ER width: restores the abnormal ER width
[1]; [4]
  number of MERCS per mitochondria: increasing the number of MERCS per mitochondria
  percent of mitochondrial surface in contact with ER: increasing the number of MERCS per mitochondria and the percent of mitochondrial surface in contact with ER
[2]; Y128 neurons, 1 μM, 24 h, p<0.0001
  S1R co-localization with mitochondria: increase in IP3R and S1R co-localization with mitochondria
[2]; Y128 neurons, 1 μM, 24 h, p=0.0001
  IP3R co-localization with mitochondria: increase in IP3R and S1R co-localization with mitochondria
[2]; Y128 striatal neurons
  total S1R protein levels: restores S1R levels to WT levels
[2]; [5]
  S1R total levels in neurites: significantly increases S1R levels
  S1R total levels in soma: significantly increases S1R levels
HD human lymphoblasts; HD human lymphoblasts, 5 μM, then H2O2 6 h
  MMP (TMRE signal) after H2O2: significant rescue effect
HD human lymphoblasts; human lymphoblasts, 10 μM, then 0.1 mM H2O2 6 h, p=0.1389
  restoration of membrane potential: less efficacious and shows less restoration of membrane potential
HD human lymphoblasts; human lymphoblasts, then 0.1 mM H2O2 6 h
  concentration of maximal effect on MMP (bell-shaped dose-response): 5 µM
HD-NSCs
  inhibition at 1 µM: ~42%
[3]
  GCLc expression (mRNA): shows a trend towards upregulation
[3]; p=0.0010
  expression of Nqo1 (mRNA): significantly upregulates
[3]; p=0.0308
  expression of Hmox1 (mRNA): significantly upregulates
YAC128 mice
  motor performance, latency to fall in accelerated rotarod: significant motor improvement
